Laboratory results taken from BindingDB's records for patent US20250313563 (The Broad Institute, 2025).
Where “and” joins values, the source holds several entries; their conditions need not be identical. Equal entries are not always repeated.

Tests used:
[1] = target: Glycogen synthase kinase-3 alpha (Homo sapiens, UniProt P49840); experiment: TR-FRET Assay
Summary of the method: (§1)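 TR-FRET readout: streptavidin-d2 (40 nM in added detection mix) plus Tb-anti-pSer641 Ab (2 nM in mix). Steps were 30 min compound preincubation, kinase reaction, then EDTA stop.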

[2] = target: Glycogen synthase kinase-3 beta (Homo sapiens, UniProt P49841); experiment: TR-FRET Assay
Sequence of Glycogen synthase kinase-3 beta (P49841 whole entry): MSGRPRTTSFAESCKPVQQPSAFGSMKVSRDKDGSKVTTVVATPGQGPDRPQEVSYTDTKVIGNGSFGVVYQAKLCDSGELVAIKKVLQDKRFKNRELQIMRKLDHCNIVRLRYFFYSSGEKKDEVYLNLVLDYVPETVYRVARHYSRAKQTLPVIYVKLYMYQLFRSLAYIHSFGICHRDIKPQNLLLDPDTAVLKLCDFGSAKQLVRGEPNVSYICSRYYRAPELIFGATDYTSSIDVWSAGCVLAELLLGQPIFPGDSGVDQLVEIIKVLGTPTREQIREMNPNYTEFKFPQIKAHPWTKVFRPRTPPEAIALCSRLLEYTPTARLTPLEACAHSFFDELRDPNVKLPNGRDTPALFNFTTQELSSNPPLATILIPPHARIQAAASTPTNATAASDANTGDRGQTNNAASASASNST
Summary of the method: as §1

Sequence of Glycogen synthase kinase-3 alpha (P49840 whole entry): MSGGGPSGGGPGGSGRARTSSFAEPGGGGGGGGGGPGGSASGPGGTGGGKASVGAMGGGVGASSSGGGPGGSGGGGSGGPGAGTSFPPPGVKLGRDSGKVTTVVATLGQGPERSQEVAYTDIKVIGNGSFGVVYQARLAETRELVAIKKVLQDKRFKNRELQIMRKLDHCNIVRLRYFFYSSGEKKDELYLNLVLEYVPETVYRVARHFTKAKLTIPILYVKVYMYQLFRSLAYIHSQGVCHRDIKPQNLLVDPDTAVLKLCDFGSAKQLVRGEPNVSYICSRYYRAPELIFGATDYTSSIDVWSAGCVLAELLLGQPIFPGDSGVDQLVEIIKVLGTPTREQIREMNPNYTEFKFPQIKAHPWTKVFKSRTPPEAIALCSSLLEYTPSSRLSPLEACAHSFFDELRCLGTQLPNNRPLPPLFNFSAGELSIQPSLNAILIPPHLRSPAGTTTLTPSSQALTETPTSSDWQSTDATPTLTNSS

Row | Compound | IC50 [1] | IC50 [2]
1 | CC1(C)CC(=O)C2=C(C1)NC1=C(CN=N1)C21COC2(CN(C(=O)Cc3ccccc3)C2)C1 (stereo unspecified) [US20250313563, Compound 947306] | < 100 nM | < 100 nM
2 | CC[C@]1(c2cccc(-c3cnn(C)c3)c2)C2=C(CC(C)(C)CC2=O)NC2N=NC(C)=C21 (stereo partly specified) [US20250313563, Compound 913038] | 100 to 1000 nM | 1000 to 5000 nM
3 | CC1(C)CC(=O)C2=C(C1)NC1=C(CN=N1)C21COC2(CN(C(=O)C(C)(C)C)C2)C1 (stereo unspecified) [US20250313563, Compound 947303] | < 100 nM | < 100 nM
4 | CC1(C)CC(=O)C2=C(C1)NC1=C(CN=N1)[C@]21CCN(S(=O)(=O)C2CCCC2)C1 [US20250313563, Compound 943482] | < 100 nM and 100 to 1000 nM | < 100 nM and 100 to 1000 nM
5 | CC[C@@]1(c2cc(-c3cnn(C)c3)ccc2F)C2=CN=NC2NC2=C1C(=O)CC(C)(C)C2 (stereo partly specified) [US20250313563, Compound 909223] | > 5000 nM | > 5000 nM
6 | Cn1nccc1-c1cccc2c1CCC[C@]21C2=CN=NC2NC2=C1C(=O)CC(C)(C)C2 (stereo partly specified) [US20250313563, Compound 945552] | 100 to 1000 nM | > 5000 nM
7 | CC[C@]1(c2cccc(N(C)C(C)=O)c2)C2=CN=NC2NC2=C1C(=O)CC(C)(C)C2 (stereo partly specified) [US20250313563, Compound 810358] | < 100 nM | < 100 nM
8 | CC1(C)CC(=O)C2=C(C1)NC1=C(CN=N1)C21CCN(S(=O)(=O)c2ccccc2C(F)F)CC1 [US20250313563, Compound 945657] | < 100 nM and 100 to 1000 nM | 100 to 1000 nM and 1000 to 5000 nM
9 | CC(C)n1cc(S(=O)(=O)N2CCC3(CC2)C2=C(N=NC2)NC2=C3C(=O)CC(C)(C)C2)cn1 [US20250313563, Compound 947607] | < 100 nM | < 100 nM
10 | CC1(C)CC(=O)C2=C(C1)NC1=C(CN=N1)C21CCN(S(=O)(=O)c2cnn(-c3ccccc3)c2)CC1 [US20250313563, Compound 947904] | < 100 nM | < 100 nM
11 | Cc1cccc2c1CC[C@]21C2=C(N=NC2)NC2=C1C(=O)CC(C)(C)C2 [US20250313563, Compound 913137] | > 5000 nM | > 5000 nM
12 | CCC1(c2cccc(C(C)C)c2)C2=C(CC(C)(C)NC2=O)NC2N=NC(C(F)(F)F)=C21 (stereo unspecified) [US20250313563, Compound 949747] | < 100 nM | < 100 nM
13 | Cn1nc(C(F)(F)F)cc1S(=O)(=O)N1CCC2(CC1)C1=C(N=NC1)NC1=C2C(=O)CC(C)(C)C1 [US20250313563, Compound 947606] | < 100 nM | < 100 nM
14 | CC[C@@]1(c2cccc([C@H](C)c3ncccn3)c2)C2=CN=NC2NC2=C1C(=O)CC(C)(C)C2 (stereo partly specified) [US20250313563, Compound 948060] | < 100 nM and 100 to 1000 nM | < 100 nM and 1000 to 5000 nM
15 | CCC1(c2cccc(N(c3cccnc3)C(C)C)c2)C2=CN=NC2NC2=C1C(=O)CC(C)(C)C2 (stereo unspecified) [US20250313563, Compound 885344] | < 100 nM | < 100 nM
16 | CCC1(c2ccc(C)cc2)C2=C(N=NC2)NC2=C1C(=O)CC(C)(C)C2 (stereo unspecified) [US20250313563, Compound 785739] | 100 to 1000 nM | > 5000 nM
17 | CC1(C)CC(=O)C2=C(C1)NC1N=NC(CC(F)(F)F)=C1[C@]21CCc2c(F)cccc21 (stereo partly specified) [US20250313563, Compound 816838] | 100 to 1000 nM | 100 to 1000 nM
18 | CCC1(c2cccc(-c3cc(C)ncc3C)c2)C2=CN=NC2NC2=C1C(=O)CC(C)(C)C2 (stereo unspecified) [US20250313563, Compound 913346] | < 100 nM | 100 to 1000 nM
19 | CCC1(c2cccc(C)c2)C2=C(N=NC2)NC2=C1C(=O)CC1(CCCC1)C2 (stereo unspecified) [US20250313563, Compound 789565] | < 100 nM | 100 to 1000 nM
20 | CC1=C2C(N=N1)NC1=C(C(=O)CC(C)(C)C1)C21CCCCC1 (stereo unspecified) [US20250313563, Compound 883865] | < 100 nM | 100 to 1000 nM
21 | CC[C@@]1(c2cccc(C(F)(F)F)c2)C2=CN=NC2NC2=C1C(=O)N(c1cc(C)n(C)n1)CC2 (stereo partly specified) [US20250313563, Compound 951954] | > 5000 nM | > 5000 nM
22 | CC1(C)CC(=O)C2=C(C1)NC1=C(CN=N1)C21COC2(CN(C(=O)CC3CCC3)C2)C1 (stereo unspecified) [US20250313563, Compound 947299] | < 100 nM | < 100 nM
23 | CC[C@]1(c2cccc(-c3ccnc(C)c3)c2)C2=CN=NC2NC2=C1C(=O)[C@@H](F)C(C)(C)C2 (stereo partly specified) [US20250313563, Compound 945486] | 1000 to 5000 nM | > 5000 nM
24 | CC1(C)CC(=O)C2=C(C1)NC1=C(CN=N1)C21CCC2(CCC(=O)N2)CC1 (stereo unspecified) [US20250313563, Compound 913056] | 100 to 1000 nM | 1000 to 5000 nM
25 | CC1(C)CC(=O)C2=C(C1)NC1N=NC=C1C21CN(c2ccc(C(F)(F)F)cc2)C1 (stereo unspecified) [US20250313563, Compound 945478] | 100 to 1000 nM | 100 to 1000 nM
26 | CCC1(c2cccc(N(C(C)=O)C3CCCC3)c2)C2=CN=NC2NC2=C1C(=O)CC(C)(C)C2 (stereo unspecified) [US20250313563, Compound 912069] | < 100 nM | < 100 nM
27 | CC[C@@]1(c2cccc(-c3cnnc(C)c3)c2)C2=CN=NC2NC2=C1C(=O)NC(C)(C)C2 (stereo partly specified) [US20250313563, Compound 944074] | < 100 nM and 100 to 1000 nM | 100 to 1000 nM and > 5000 nM

Row | Compound | IC50 [1] | IC50 [2]
28 | CC[C@@]1(c2cccc(N(C)c3ccccn3)c2)C2=CN=NC2NC2=C1C(=O)CC(C)(C)C2 (stereo partly specified) [US20250313563, Compound 875568] | < 100 nM | < 100 nM
29 | CC[C@@]1(c2cccc(-c3ccncc3C(F)(F)F)c2)C2=C(N=NC2)NC2=C1C(=O)C(C)(C)C2 [US20250313563, Compound 952757] | 1000 to 5000 nM | > 5000 nM
30 | CC[C@]1(c2cccc(-c3cnn(C)c3C)c2)C2=C(CC(C)(C)NC2=O)NC2N=NC(C(F)(F)F)=C21 (stereo partly specified) [US20250313563, Compound 947807] | < 100 nM | 100 to 1000 nM
31 | CC1(C)CC(=O)C2=C(C1)NC1N=NC=C1C21CCCN(CC(F)(F)F)CC1 (stereo unspecified) [US20250313563, Compound 889576] | 100 to 1000 nM | 100 to 1000 nM
32 | CC[C@]1(c2cccc(-c3cnn(Cc4cccc(C(F)(F)F)c4)c3)c2)C2=CN=NC2NC2=C1C(=O)NC(C)(C)C2 (stereo partly specified) [US20250313563, Compound 949513] | > 5000 nM | > 5000 nM
33 | CC[C@]1(c2cccc(-c3cn(C)nc3C)c2)C2=CN=NC2NC2=C1C(=O)NC1(CCCC1)C2 (stereo partly specified) [US20250313563, Compound 950252] | < 100 nM | < 100 nM and 1000 to 5000 nM
34 | CC[C@]1(c2cccc(C3=C4CC=CC(Cl)=C4N=CC3)c2)C2=CN=NC2NC2=C1C(=O)NC(C)(C)C2 (stereo partly specified) [US20250313563, Compound 948650] | > 5000 nM | > 5000 nM
35 | CC[C@@]1(c2cccc(-c3cn(C)nc3C)c2)C2=C(CC(C)(C)NC2=O)NC2N=NC(C)=C21 (stereo partly specified) [US20250313563, Compound 946001] | < 100 nM | < 100 nM and 100 to 1000 nM
36 | CC1(C)CC(=O)C2=C(C1)NC1N=NC(C(F)(F)F)=C1[C@@]21CCc2c(F)cccc21 (stereo partly specified) [US20250313563, Compound 806568] | 1000 to 5000 nM | 100 to 1000 nM
37 | CC1(C)CC(=O)C2=C(C1)NC1=C(CN=N1)C21CCCCC1 [US20250313563, Compound 826650] | < 100 nM | < 100 nM
38 | CC[C@@]1(c2cccc(-c3ccnc4c3CCC4)c2)C2=CN=NC2NC2=C1C(=O)CC(C)(C)C2 (stereo partly specified) [US20250313563, Compound 945606] | 100 to 1000 nM | 100 to 1000 nM and 1000 to 5000 nM
39 | CCCn1nccc1-c1cccc([C@@]2(CC)C3=CN=NC3NC3=C2C(=O)CC(C)(C)C3)c1 (stereo partly specified) [US20250313563, Compound 946094] | 100 to 1000 nM | 1000 to 5000 nM
40 | CC[C@@]1(c2cccc(C(F)(F)F)c2)C2=CN=NC2NC2=C1C(=O)N(c1ccc(F)cc1)CC2 (stereo partly specified) [US20250313563, Compound 948225] | 1000 to 5000 nM | > 5000 nM
41 | CC1(C)CC(=O)C2=C(C1)NC1=C(CN=N1)C21COC2(CN(C(=O)C3CCCC3)C2)C1 (stereo unspecified) [US20250313563, Compound 917232] | < 100 nM | < 100 nM
42 | CC[C@]1(c2cccc(C)c2)C2=CN=NC2NC2=C1C(=O)CC(C)(C)C2 (stereo partly specified) [US20250313563, Compound 789560] | < 100 nM and 1000 to 5000 nM | 100 to 1000 nM
43 | CC[C@@]1(c2cccc(-c3ccnc(C(F)F)c3)c2)C2=CN=NC2NC2=C1C(=O)NC(C)(C)C2 (stereo partly specified) [US20250313563, Compound 950561] | < 100 nM | 100 to 1000 nM
44 | CC[C@@]1(c2cccc(-c3cc(C)nn3C)c2)C2=C(N=NC2)NC2=C1C(=O)C(C)(C)C2 [US20250313563, Compound 950818] | 100 to 1000 nM | 1000 to 5000 nM
45 | CC[C@@]1(c2cccc(N3CCCC3)c2)C2=CN=NC2NC2=C1C(=O)CC(C)(C)C2 (stereo partly specified) [US20250313563, Compound 810510] | < 100 nM | 100 to 1000 nM
46 | CC1(C)CC(=O)C2=C(C1)NC1=C(CN=N1)C21CCN(S(=O)(=O)c2cnc3ccccn23)CC1 [US20250313563, Compound 947610] | < 100 nM | < 100 nM
47 | CCC1(c2ccccc2)C2=C(N=NC2)NC2=C1C(=O)N(C)CC2 (stereo unspecified) [US20250313563, Compound 883867] | > 5000 nM | > 5000 nM
48 | CC[C@@H]1C[C@@]2(CCO1)C1=C(N=NC1)NC1=C2C(=O)CC(C)(C)C1 [US20250313563, Compound 907328] | 100 to 1000 nM | 1000 to 5000 nM
49 | CCC1(c2cccc(OC)c2)C2=C(N=NC2)NC2=C1C(=O)NC(C)(C)C2 (stereo unspecified) [US20250313563, Compound 948296] | 100 to 1000 nM | 1000 to 5000 nM
50 | CC1(C)CC(=O)C2=C(C1)NC1=C(CN=N1)[C@]21CCOC2(CCC2)C1 [US20250313563, Compound 897756] | 100 to 1000 nM | 100 to 1000 nM
51 | CC[C@@]1(c2cccc(N(C)c3ncccn3)c2)C2=C(CC(C)(C)NC2=O)NC2N=NC(C(F)F)=C21 (stereo partly specified) [US20250313563, Compound 951740] | < 100 nM | < 100 nM and 100 to 1000 nM
52 | Cn1ccc(S(=O)(=O)N2CC3(C2)C2=C(N=NC2)NC2=C3C(=O)CC(C)(C)C2)n1 [US20250313563, Compound 913260] | < 100 nM | < 100 nM
53 | CC[C@@]1(c2ccccc2)C2=CN=NC2NC2=C1C(=O)C[C@@H](C(F)(F)F)C2 (stereo partly specified) [US20250313563, Compound 806609] | 100 to 1000 nM | > 1670 nM
